Values of other authors, collected in US20030026872A1, “Compositions having enhanced aqueous solubility and methods of their preparation” (The Procter & Gamble Co., priority 2001, published 2003).
Peptide text beside a SMILES is read from it.

Details: relative to sucrose

Molecule	relative sweetening intensity (RSI)
CC1=CC(=O)[N-]S(=O)(=O)O1.[K+] [acesulfame K]	about 200 times that of sucrose
C[C@@H](NC(=O)[C@@H](N)CC(=O)O)C(=O)NC1C(C)(C)SC1(C)C [alitame]	about 2000 times that of sucrose
COC(=O)[C@H](Cc1ccccc1)NC(=O)[C@@H](N)CC(=O)O [aspartame, N-L-alpha-aspartyl-phenylalanine-l-methyl ester] (H-Asp-Phe-OMe)	about 180 times that of sucrose
OC[C@@H](O)[C@@H](O)CO [erythritol]	about 0.7 times that of sucrose
CC(C)=CCC[C@](C)(O)[C@@H]1CCC(C)=CC1=O [hemandulcin]	about 1000 times that of sucrose
OC[C@@H](O)[C@@H](O[C@@H]1O[C@H](CO)[C@H](O)[C@H](O)[C@H]1O)[C@H](O)[C@@H](O)CO [lactitol]	about 0.4 times that of sucrose
OC[C@@H](O)[C@@H](O[C@H]1O[C@H](CO)[C@@H](O)[C@H](O)[C@H]1O)[C@H](O)[C@@H](O)CO [maltitol]	about 0.8 times that of sucrose
OC[C@@H](O)[C@@H](O)[C@H](O)[C@H](O)CO [mannitol]	about 0.7 times that of sucrose
O=C1NS(=O)(=O)c2ccccc21 [saccharin]	about 300 times that of sucrose
OC[C@@H](O)[C@@H](O)[C@H](O)[C@@H](O)CO [sorbitol]	about 0.6 times that of sucrose
C=C1C[C@@]23CC[C@H]4[C@@](C)(CCC[C@@]4(C)C(=O)O[C@@H]4O[C@H](CO)[C@@H](O)[C@H](O)[C@H]4O)[C@@H]2CC[C@]1(O[C@@H]1O[C@H](CO)[C@@H](O)[C@H](O)[C@H]1O[C@@H]1O[C@H](CO)[C@@H](O)[C@H](O)[C@H]1O)C3 [stevioside]	about 300 times that of sucrose
OC[C@H]1O[C@H](O[C@]2(CCl)O[C@H](CCl)[C@@H](O)[C@@H]2O)[C@H](O)[C@@H](O)[C@H]1Cl [sucralose]	about 600 times that of sucrose
OC[C@H]1O[C@@](CO)(O[C@H]2O[C@H](CO)[C@@H](O)[C@H](O)[C@H]2O)[C@@H](O)[C@@H]1O [sucrose]	one
OC[C@@H](O)[C@H](O)[C@@H](O)CO [xylitol]	about equal to sucrose
cyclamates	about 30 times that of sucrose
isomalt	about 0.5 times that of sucrose
